Assay results from publication PMC7481482, “Development of Anthraquinone Derivatives as Ectonucleoside Triphosphate Diphosphohydrolase (NTPDase) Inhibitors With Selectivity for NTPDase2 and NTPDase3” (Frontiers in Pharmacology, 2020).

How the values were obtained:
Assay type in all cases: biochemical
human NTPDase2 = target: T1, human NTPDase2 (Homo sapiens, UniProt Q9Y5L3); test: Malachite green assay, human NTPDase2; conditions: 100 µM ATP, COS-7 membrane preparation; for IC50: read-out: IC50 ± SEM, NTPDase2; for inhibition at 2 µM: 2 μM compound, read-out: % inhibition at 2 μM concentration, NTPDase2
T1 construct: expressed in transfected cells; host or cells: COS-7 cells (membrane preparation)
T1 sequence (Q9Y5L3 1-495): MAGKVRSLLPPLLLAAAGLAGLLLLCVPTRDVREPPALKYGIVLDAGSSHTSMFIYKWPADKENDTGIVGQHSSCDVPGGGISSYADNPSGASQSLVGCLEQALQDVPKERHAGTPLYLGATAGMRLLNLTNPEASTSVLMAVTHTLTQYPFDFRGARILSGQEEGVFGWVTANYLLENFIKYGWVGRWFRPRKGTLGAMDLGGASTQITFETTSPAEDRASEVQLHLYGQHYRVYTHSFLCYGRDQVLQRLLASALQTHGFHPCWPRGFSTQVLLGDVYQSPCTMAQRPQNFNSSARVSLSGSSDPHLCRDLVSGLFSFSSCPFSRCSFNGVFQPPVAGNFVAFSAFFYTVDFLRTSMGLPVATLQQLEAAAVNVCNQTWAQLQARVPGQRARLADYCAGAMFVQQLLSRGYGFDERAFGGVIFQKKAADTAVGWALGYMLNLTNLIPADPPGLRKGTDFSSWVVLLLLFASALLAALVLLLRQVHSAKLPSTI
Description: (§1) Membrane preparations expressing human NTPDase1, -2, -3, or -8, respectively, were obtained as previously described ([Sévigny et al., 1997]; [Cogan et al., 1999]; [Kukulski et al., 2005]; [Lecka et al., 2013]; [Lee et al., 2018]). Enzyme inhibition assays were performed using the malachite green assay in analogy to published procedures with some modifications ([Dou et al., 2018]). The reaction buffer contained 10 mM HEPES, 2 mM CaCl2, and 1 mM MgCl2 (pH 7.4) in a final volume of 50 μL in transparent 96-well half-area plates. The compounds were initially tested at a final concentration of 2 µM using a COS-7-cell membrane preparation expressing the appropriate NTPDase isoenzyme (protein amount: 143 ng for NTPDase1, 175 ng for NTPDase2, 152 ng for NTPDase3, and 175 ng for NTPDase8). Preincubated of the enzyme preparations was perfomred at 37°C in the presence or absence of test compounds with gentle shaking (Eppendorf Thermomixer comfort at 500 rpm) for 5 min. […] ([Kukulski et al., 2005]). After 15 min of incubation at 37°C with gentle shaking, the reaction was stopped by the addition of the detection reagents (20 µL malachite green solution, 0.6 mM, and 30 µL of ammonium molybdate solution, 20 mM, in 1.5 M sulfuric acid). The released inorganic phosphate was quantified after 20 min of gentle shaking at 25°C by measuring the absorption of the malachite green-phosphomolybdate complex at 600 nm using a BMG PheraStar FS plate reader (BMG Labtech GmbH, Ortenberg, Germany). The corrected absorption was calculated by subtracting the absorption of the negative control samples, which were incubated with previously denatured enzyme (90°C, 15 min). Full concentration-inhibition curves were determined with inhibitor concentrations ranging from 0.03 to 30 µM in the presence of 2% DMSO. Inhibition-type experiments were performed with 25, 50, 100, 150 and 200 µM ATP as substrate for NTPDase2 in the presence of inhibitor 20 (0, 0.25, 0.5, and 1 µM) and 25, 50, 100 and 150 µM ATP substrate for NTPDase3 and compound 42 (0.25, 0.5, and 1 µM). For all of the presented data, at least three independent experiments were performed, and IC50 values were calculated by GraphPad Prism 8 software.
(§2) Inhibition of human NTPDases was performed using the malachite green assay, which was established on a robotic system (Z’ factors > 0.70) ([Baykov et al., 1988]; [Fiene et al., 2015]). The malachite green assay enables the detection of the phosphate produced by the enzymatic hydrolysis of nucleotides. A fixed substrate concentration of 50 µM ATP for NTPDase1 and 100 µM for NTPDase2, -3, and -8 was employed. Test compounds were initially screened at a concentration of 2 μM. […] A total of 48 synthesized anthraquinone derivatives including 14 new compounds not previously described in the literature were evaluated for their inhibitory activity at human NTPDase1, -2, -3, and -8 (for results see Table 1).

human NTPDase8 = target: T2, human NTPDase8 (Homo sapiens, UniProt Q5MY95); test: Malachite green assay, human NTPDase8; conditions: 2 μM compound; 100 µM ATP; COS-7 membrane preparation; read-out: % inhibition at 2 μM concentration, NTPDase8
T2 construct: expressed in transfected cells; host or cells: COS-7 cells (membrane preparation)
T2 sequence (Q5MY95 1-495): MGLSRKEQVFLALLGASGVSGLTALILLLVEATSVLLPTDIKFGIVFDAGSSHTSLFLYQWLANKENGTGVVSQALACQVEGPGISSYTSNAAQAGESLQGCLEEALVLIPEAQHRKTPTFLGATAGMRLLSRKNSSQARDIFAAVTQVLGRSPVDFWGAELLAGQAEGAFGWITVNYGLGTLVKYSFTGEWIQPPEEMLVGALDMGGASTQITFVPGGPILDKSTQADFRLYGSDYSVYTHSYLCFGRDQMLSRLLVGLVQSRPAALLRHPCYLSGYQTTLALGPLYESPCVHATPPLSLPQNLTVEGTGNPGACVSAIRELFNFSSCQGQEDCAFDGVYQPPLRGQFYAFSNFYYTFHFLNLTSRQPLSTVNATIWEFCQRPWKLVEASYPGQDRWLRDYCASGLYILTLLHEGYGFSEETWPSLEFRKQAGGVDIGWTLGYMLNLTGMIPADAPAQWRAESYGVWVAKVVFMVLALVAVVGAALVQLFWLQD
Description: as §1, §2

human NTPDase3 = target: T3, human NTPDase3 (Homo sapiens, UniProt O75355); test: Malachite green assay, human NTPDase3; conditions: 100 µM ATP, COS-7 membrane preparation; for inhibition at 2 µM: 2 μM compound, read-out: % inhibition at 2 μM concentration, NTPDase3; for IC50: read-out: IC50 ± SEM, NTPDase3
T3 construct: expressed in transfected cells; host or cells: COS-7 cells (membrane preparation)
T3 sequence (O75355 1-529): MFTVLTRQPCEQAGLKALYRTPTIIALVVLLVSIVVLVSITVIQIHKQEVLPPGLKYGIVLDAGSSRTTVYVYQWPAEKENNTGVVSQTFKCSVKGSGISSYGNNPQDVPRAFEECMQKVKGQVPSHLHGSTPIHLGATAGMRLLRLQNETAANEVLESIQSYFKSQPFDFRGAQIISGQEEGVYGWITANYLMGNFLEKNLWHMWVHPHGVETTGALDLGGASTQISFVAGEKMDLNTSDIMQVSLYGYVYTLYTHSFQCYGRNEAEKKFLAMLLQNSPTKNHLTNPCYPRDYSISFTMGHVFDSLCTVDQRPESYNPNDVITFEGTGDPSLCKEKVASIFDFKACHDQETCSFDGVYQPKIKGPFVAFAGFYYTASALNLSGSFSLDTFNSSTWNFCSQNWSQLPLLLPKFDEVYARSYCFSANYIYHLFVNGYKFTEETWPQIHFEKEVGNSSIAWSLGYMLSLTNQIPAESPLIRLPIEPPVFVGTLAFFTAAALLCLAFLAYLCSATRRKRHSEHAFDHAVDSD
Description: as §1, §2

human NTPDase1 = target: T4, human NTPDase1 (Homo sapiens, UniProt P49961); test: Malachite green assay, human NTPDase1; conditions: 2 μM compound; 50 µM ATP; COS-7 membrane preparation; read-out: % inhibition at 2 μM concentration, NTPDase1
T4 construct: expressed in transfected cells; host or cells: COS-7 cells (membrane preparation)
T4 sequence (P49961 1-510): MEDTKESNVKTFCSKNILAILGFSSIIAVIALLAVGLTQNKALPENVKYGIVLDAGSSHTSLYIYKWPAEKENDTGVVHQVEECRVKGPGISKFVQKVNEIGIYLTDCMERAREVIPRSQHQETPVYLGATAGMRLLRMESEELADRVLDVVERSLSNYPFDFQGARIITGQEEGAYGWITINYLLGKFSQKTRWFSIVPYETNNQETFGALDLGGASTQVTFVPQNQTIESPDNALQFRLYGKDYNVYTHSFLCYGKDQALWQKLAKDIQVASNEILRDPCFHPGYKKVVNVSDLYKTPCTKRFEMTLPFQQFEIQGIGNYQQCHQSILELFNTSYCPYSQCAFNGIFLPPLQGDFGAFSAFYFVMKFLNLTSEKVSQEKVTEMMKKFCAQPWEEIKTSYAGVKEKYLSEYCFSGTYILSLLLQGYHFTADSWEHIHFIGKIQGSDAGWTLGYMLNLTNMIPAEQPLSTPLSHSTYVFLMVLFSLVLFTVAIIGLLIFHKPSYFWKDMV
Description: as §1, §2

Structure (SMILES)	IC50 (human NTPDase2) [nM]	inhibition at 2 µM (human NTPDase8) [%]	inhibition at 2 µM (human NTPDase3) [%]	inhibition at 2 µM (human NTPDase1) [%]	inhibition at 2 µM (human NTPDase2) [%]	IC50 (human NTPDase3) [nM]
Cc1ccc2ccccc2c1Nc1cc(S(=O)(=O)O)c(N)c2c1C(=O)c1ccccc1C2=O [Compound 16]	5620 ± 720	3	-21	3	–	–
Nc1c(S(=O)(=O)O)cc(Nc2ccc(O)c(C(=O)O)c2)c2c1C(=O)c1ccccc1C2=O [Compound 33, 1-amino-4-(3-carboxy-4-hydroxyphenylamino)-9,10-dioxo-9,10-dihydroanthracene-2-sulfonate]	–	-9	–	-12	12	723 ± 32
COc1cccc(Nc2cc(C)c(N)c3c2C(=O)c2ccccc2C3=O)c1 [Compound 55]	–	-2	0	-6	3	–
Cc1cc(Cl)ccc1Nc1cc(S(=O)(=O)O)c(N)c2c1C(=O)c1ccccc1C2=O [Compound 38]	5450 ± 700	-1	9	2	–	–
Nc1cc(Nc2cc(S(=O)(=O)O)c(N)c3c2C(=O)c2ccccc2C3=O)ccc1S(=O)(=O)O [Compound 31]	–	-19	–	-15	1	4260 ± 540
Nc1c(S(=O)(=O)O)cc(Nc2ccccc2)c2c1C(=O)c1ccccc1C2=O [Compound 14]	–	-15	-10	-13	15	–
Nc1c(S(=O)(=O)O)cc(NCCc2ccccc2)c2c1C(=O)c1ccccc1C2=O [Compound 13]	–	-3	-3	-12	12	–
Nc1c(S(=O)(=O)O)cc(Nc2ccc(Cl)cc2C(=O)O)c2c1C(=O)c1ccccc1C2=O [Compound 36]	–	-17	–	-20	-2	4040 ± 470
Nc1c(S(=O)(=O)O)cc(Nc2cccc([N+](=O)[O-])c2)c2c1C(=O)c1ccccc1C2=O [Compound 24]	–	3	–	-32	19	15300 ± 2500
CCc1cccc(Nc2cc(C)c(N)c3c2C(=O)c2ccccc2C3=O)c1 [Compound 56]	–	-3	-1	-3	6	–

Now from value to compound:

IC50 (human NTPDase2) [nM]	inhibition at 2 µM (human NTPDase8) [%]	inhibition at 2 µM (human NTPDase3) [%]	inhibition at 2 µM (human NTPDase1) [%]	inhibition at 2 µM (human NTPDase2) [%]	IC50 (human NTPDase3) [nM]	Structure (SMILES)
551 ± 195	14	20	29	–	–	Nc1c(S(=O)(=O)O)cc(Nc2ccc(Sc3ccccc3)c(Cl)c2)c2c1C(=O)c1ccccc1C2=O [Compound 48, Sodium 1-amino-4-(3-chloro-4-phenylsulfanyl)-phenylamino-9,10-dioxo-9,10-dihydroanthracene-2-sulfonate]
832 ± 53	27	44	51	–	–	Cc1ccc(Sc2ccc(Nc3cc(S(=O)(=O)O)c(N)c4c3C(=O)c3ccccc3C4=O)cc2)cc1C [Compound 51]
1730 ± 290	10	21	33	–	–	Nc1c(S(=O)(=O)O)cc(Nc2ccc(Oc3ccc(Br)cc3)cc2)c2c1C(=O)c1ccccc1C2=O [Compound 46]
–	-12	-25	-19	17	–	Nc1ccc(Nc2cc(S(=O)(=O)O)c(N)c3c2C(=O)c2ccccc2C3=O)cc1 [Compound 25]
1280 ± 340	27	36	46	–	–	Cc1ccc(Sc2ccc(Nc3cc(S(=O)(=O)O)c(N)c4c3C(=O)c3ccccc3C4=O)cc2)c(C)c1 [Compound 49]
–	-1	0	-8	15	–	Nc1c(S(=O)(=O)O)cc(Nc2cccc(F)c2)c2c1C(=O)c1ccccc1C2=O [Compound 21]
1110 ± 60	9	18	12	–	–	Nc1c(S(=O)(=O)O)cc(Nc2cccc(Oc3ccccc3)c2)c2c1C(=O)c1ccccc1C2=O [Compound 40]
